For orientation: IC50 means the concentration that inhibits the measured activity by half.

Four compounds from US20210070748A1, “INHIBITORS OF BRUTONS TYROSINE KINASE” (Pharmacyclics LLC, priority 2015, published 2021) can be followed below.

SMILES strings stand for the structures. Like-named read-outs stand apart in the source and are kept apart here.

Type in all cases: biochemical
One test concerns the target T1, JAK3 (Homo sapiens, UniProt P52333).
T1 sequence (P52333 1-1124): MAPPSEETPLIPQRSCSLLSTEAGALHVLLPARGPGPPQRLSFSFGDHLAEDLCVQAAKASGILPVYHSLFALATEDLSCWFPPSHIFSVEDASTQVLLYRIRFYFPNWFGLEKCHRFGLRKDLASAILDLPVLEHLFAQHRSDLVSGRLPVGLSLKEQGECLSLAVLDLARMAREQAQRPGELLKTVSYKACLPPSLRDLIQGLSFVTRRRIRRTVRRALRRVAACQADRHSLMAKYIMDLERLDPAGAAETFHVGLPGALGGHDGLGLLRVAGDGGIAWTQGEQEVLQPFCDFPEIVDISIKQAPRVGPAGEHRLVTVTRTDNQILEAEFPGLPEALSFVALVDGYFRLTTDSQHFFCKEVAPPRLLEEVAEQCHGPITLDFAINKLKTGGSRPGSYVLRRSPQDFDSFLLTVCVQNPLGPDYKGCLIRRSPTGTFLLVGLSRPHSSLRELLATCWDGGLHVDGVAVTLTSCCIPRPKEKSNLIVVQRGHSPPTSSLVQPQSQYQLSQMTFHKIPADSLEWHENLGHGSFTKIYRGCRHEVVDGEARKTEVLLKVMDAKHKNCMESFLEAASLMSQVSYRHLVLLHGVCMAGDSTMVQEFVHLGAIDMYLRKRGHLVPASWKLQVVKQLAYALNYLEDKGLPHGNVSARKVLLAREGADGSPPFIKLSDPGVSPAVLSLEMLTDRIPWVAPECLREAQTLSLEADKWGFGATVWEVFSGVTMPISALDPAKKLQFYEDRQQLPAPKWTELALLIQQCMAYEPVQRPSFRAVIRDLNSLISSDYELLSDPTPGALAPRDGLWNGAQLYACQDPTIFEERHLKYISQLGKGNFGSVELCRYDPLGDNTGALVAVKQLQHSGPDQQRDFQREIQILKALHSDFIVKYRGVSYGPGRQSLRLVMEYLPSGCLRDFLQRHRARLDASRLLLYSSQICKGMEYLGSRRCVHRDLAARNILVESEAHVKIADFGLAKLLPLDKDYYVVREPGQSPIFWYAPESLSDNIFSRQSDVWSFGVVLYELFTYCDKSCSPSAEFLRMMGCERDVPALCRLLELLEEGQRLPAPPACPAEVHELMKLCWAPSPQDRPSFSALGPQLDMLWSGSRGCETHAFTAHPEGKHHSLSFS
The test can be described thus: Inhibition of a panel of kinases, in vitro HotSpot kinase assay: JAK3. The conditions noted are these: read-out: IC50 JAK3.

The target of a further test is T2, ITK (Homo sapiens, UniProt Q08881).
T2 sequence (Q08881 1-620): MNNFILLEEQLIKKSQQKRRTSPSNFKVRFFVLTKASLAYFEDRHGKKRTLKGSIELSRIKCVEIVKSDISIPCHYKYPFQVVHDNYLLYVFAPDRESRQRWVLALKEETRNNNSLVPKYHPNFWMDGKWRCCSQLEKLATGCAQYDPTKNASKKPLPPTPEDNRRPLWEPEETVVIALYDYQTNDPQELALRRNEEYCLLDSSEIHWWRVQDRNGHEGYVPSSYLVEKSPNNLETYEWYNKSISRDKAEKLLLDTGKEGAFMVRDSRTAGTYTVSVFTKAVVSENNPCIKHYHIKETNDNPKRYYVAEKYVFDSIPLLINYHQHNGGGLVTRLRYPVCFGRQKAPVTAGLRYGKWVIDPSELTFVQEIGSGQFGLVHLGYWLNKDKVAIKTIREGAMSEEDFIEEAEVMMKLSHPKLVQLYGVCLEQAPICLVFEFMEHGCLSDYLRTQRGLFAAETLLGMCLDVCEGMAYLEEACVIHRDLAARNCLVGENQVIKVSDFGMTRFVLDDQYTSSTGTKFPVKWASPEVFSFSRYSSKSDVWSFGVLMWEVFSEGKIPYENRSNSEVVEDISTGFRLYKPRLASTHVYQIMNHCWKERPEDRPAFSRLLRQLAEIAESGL
The test can be described thus: Inhibition of a panel of kinases, in vitro HotSpot kinase assay: ITK. The protocol:
The degree of inhibition of a panel of kinases is determined using the in vitro HotSpot kinase assay (purified enzymes, ^33P-ATP, an appropriate substrate and 1 μM ATP).

A further test concerns the target LCK (Homo sapiens, UniProt P06239). Description: Inhibition of a panel of kinases, in vitro HotSpot kinase assay: LCK. The conditions noted are these: read-out: IC50 LCK.
Where [1] appears, read: Table 13, A compounds, 1 μM ATP.

Chain of LCK (P06239 whole entry): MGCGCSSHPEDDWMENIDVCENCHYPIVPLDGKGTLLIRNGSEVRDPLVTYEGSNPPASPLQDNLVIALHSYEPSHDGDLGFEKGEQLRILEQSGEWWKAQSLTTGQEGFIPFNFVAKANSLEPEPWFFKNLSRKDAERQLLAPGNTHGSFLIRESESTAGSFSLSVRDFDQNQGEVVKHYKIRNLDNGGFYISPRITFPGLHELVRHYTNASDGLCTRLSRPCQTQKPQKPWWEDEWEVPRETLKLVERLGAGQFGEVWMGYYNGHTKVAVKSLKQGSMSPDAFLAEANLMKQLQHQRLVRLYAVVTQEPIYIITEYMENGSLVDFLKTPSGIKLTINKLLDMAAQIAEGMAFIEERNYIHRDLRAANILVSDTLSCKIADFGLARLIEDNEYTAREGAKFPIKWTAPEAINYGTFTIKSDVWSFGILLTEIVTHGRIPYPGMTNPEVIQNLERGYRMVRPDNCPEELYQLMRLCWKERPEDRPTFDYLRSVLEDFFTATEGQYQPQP

Regarding `C=CC(=O)N1CCC[C@@H](Nc2nnc(C(N)=O)c(Nc3ccc(Cl)cc3)n2)[C@H]1C` [Example E-7, 3-(((2R,3R)-1-acryloyl-2-methylpiperidin-3-yl)amino)-5-((4-chlorophenyl)amino)-1,2,4-triazine-6-carboxamide], the half-inhibitory concentration (IC50) was less than 10 nM at JAK3 (E compounds, Table 17); not above 10 nM against ITK (E compounds, Table 17); less than 10 nM at LCK (E compounds, Table 17).
As to `C[C@@H]1CCN(c2cnc(C(N)=O)c(Nc3cnn(C)c3)n2)C[C@@H]1NC(=O)c1ccc(C2CC2)cc1` [Example E-140, 5-((3R,4R)-3-(4-cyclopropylbenzamido)-4-methylpiperidin-1-yl)-3-((1-methyl-1H-pyrazol-4-yl)amino)pyrazine-2-carboxamide], the IC50 on JAK3 (E compounds, Table 17) was more than 10000 nM; at ITK (E compounds, Table 17) it was more than 10000 nM; on LCK (E compounds, Table 17) it was 1000 to 10000 nM.
For `C=CC(=O)N1CCC[C@@H](Nc2nnc(C(N)=O)c(Nc3ccc(C4(C)CCN(C5CC5)CC4)cc3)n2)[C@H]1C` [Example E-127, 3-(((2R,3R)-1-acryloyl-2-methylpiperidin-3-yl)amino)-5-((4-(1-cyclopropyl-4-methylpiperidin-4-yl)phenyl)amino)-1,2,4-triazine-6-carboxamide], the IC50 at JAK3 (E compounds, Table 17) is less than 10 nM; against ITK (E compounds, Table 17), not above 10 nM; at LCK (E compounds, Table 17), less than 10 nM.
Turning to `CN1CCC(n2cc(Nc3nc(N4CCC[C@@H](n5ccc6cc(C7CC7)ccc6c5=O)C4)cnc3C(N)=O)cn2)CC1` [Example A-178, 5-[(3R)-3-(6-cyclopropyl-1-oxo-1,2-dihydroisoquinolin-2-yl)piperidin-1-yl]-3-{[1-(1-methylpiperidin-4-yl)-1H-pyrazol-4-yl]amino}pyrazine-2-carboxamide], the concentration for half-maximal inhibition (IC50) on JAK3 (setting [1]) is 1000 to 10000 nM; at ITK (setting [1]), 100 to 1000 nM; on LCK (setting [1]) it was 100 to 1000 nM.
